*1 amine or outer side, *2 acyl side, *3 side chain or, on linkers, in order; H or OH if unused. Where a SMILES comes first, the peptide text is derived from it. The star is where a group is joined. X1 = O=C(CCCC[C@@H]1SC[C@@H]2NC(=O)N[C@@H]21)NCCCOCCOCCOCCCN*; Suc = O=C(CCC(=O)[*:2])[*:1]
How the values were obtained:
MAGI2 PDZ 3 = target: T1, MAGI2 PDZ 3 (Homo sapiens, UniProt Q86UL8); test: Holdup assay, MAGI2-3; assay type: binding; conditions: for BI: MAGI2-3
T1 construct: made in house; host or cells: E. coli
Experimental: (§1) The holdup assay was performed on a Tecan freedom Evo200 robot with 384-well plates in singlicate for the three 11-mer PTEN variants and the 13-mer PTEN peptide as described in [31, 32]. Briefly, prior to interaction assay, 2.5 μL of streptavidin resin was saturated in each well with 20 μL of biotinylated PBM peptides (42 μM) and then washed twice with an excess of free biotin, while the reference resin was incubated only with biotin. Right before the holdup experiment, the PDZ library was spiked with an internal standard of lysozyme. Then, the biotin- or PBM-saturated resin was incubated, each in a distinct well of a 384-well plate, with complete cell lysates diluted so that the concentration of the tag-PDZ present in the crude extract is adjusted at 4 μM. After a sufficient time to reach complex equilibrium (15 min.), a fast and mild filtration step is performed and the tag-PDZ concentrations were measured by capillary electrophoresis instrument (LabChip GXII, PerkinElmer, Massachusets, USA). Standard markers were used to convert migration time into molecular weight on the LabChip software and inappropriate molecular weight markers were corrected or excluded.
(§2) For filtered data, the BI was extracted with the following equation (Eq 1) that estimates the depleted fraction after superimposition of the sample and reference electropherograms: BI=Iref−Ilig/Iref (1) where Iref and Ilig are the intensities of the tag-PDZ peaks measured, for each PDZ domain/PBM peptide interaction pair, in the biotin reference and the PBM electropherograms, respectively.
(§3) BIs were transformed into dissociation constants (KD) using the following formula: KD=([PDZtot]−BI·[PDZtot])·([PBMtot]−BI·[PDZtot])/BI·[PDZtot] (2) where [PDZtot] and [PBMtot] correspond to the total concentrations of the PDZ domain (usually around 4 μM) and the PBM peptide used during the assay. Since the PBMtot concentration in the resin during the holdup assay parameter may differ from one peptide to another and remains unknown, it is impossible to directly convert BI values into KD constants. We systematically determined the KD constants for a subset of PDZ/PBM pairs by competitive FP. […] For each PBM, the average peptide concentration was calculated after outlier rejection based on the absolute distances from the median as compared to three times the standard deviation (3σ rule), with never more than 2 values rejected.

NHERF2 PDZ 2 = target: T2, NHERF2 PDZ 2 (Homo sapiens, UniProt Q15599); test: Holdup assay, NHERF2-2; assay type: binding; conditions: for BI: PDZ domain NHERF2-2 (gene MPDZ, 9)
T2 construct: made in house; host or cells: E. coli
Experimental: as §1, §2, §3

SNTB2 PDZ 1 = target: T3, SNTB2 PDZ 1 (Homo sapiens, UniProt Q13425); test: Holdup assay, SNTB2-1; assay type: binding; conditions: for BI: PDZ domain SNTB2-1
T3 construct: made in house; host or cells: E. coli
T3 sequence (Q13425 115-198 limits assumed): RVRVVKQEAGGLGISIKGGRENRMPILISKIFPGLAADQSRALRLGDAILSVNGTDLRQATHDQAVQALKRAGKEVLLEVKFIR
Experimental: as §1, §2, §3

ARHGEF11-1 = target: T4, ARHGEF11-1 (Homo sapiens, UniProt O15085); test: Holdup assay, ARHGEF11-1; assay type: binding
T4 sequence (O15085 47-126): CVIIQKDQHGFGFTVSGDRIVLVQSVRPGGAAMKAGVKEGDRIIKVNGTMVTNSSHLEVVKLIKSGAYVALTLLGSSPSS

DLG2-2 = DLG2-2 (Homo sapiens, UniProt Q15700); test: Holdup assay, DLG2-2; assay type: binding
DLG3-2 = target: T5, DLG3-2 (Homo sapiens, UniProt Q92796); test: Holdup assay, DLG3-2; assay type: binding
T5 sequence (Q92796 244-330): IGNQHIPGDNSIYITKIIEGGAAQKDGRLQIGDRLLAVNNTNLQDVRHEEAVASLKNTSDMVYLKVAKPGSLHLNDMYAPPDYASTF

DLG4-2 = DLG4-2 (Homo sapiens, UniProt P78352); test: Holdup assay, DLG4-2; assay type: binding
FRMPD2-3 = test: Holdup assay, FRMPD2-3; assay type: binding, human
GIPC1-1 = test: Holdup assay, GIPC1-1; assay type: binding, human
GORASP1-1 = GORASP1-1 (Homo sapiens, UniProt Q9BQQ3); test: Holdup assay, GORASP1-1; assay type: binding
GRIP1-3 = test: Holdup assay, GRIP1-3; assay type: binding, human
GRIP1-6 = test: Holdup assay, GRIP1-6; assay type: binding, human
GRIP1-7 = test: Holdup assay, GRIP1-7; assay type: binding, human
IL16-2 = test: Holdup assay, IL16-2; assay type: binding, human
INADL-10 = test: Holdup assay, INADL-10; assay type: binding, human
INADL-2 = test: Holdup assay, INADL-2; assay type: binding, human
INADL-4 = test: Holdup assay, INADL-4; assay type: binding, human
LIN7C-1 = test: Holdup assay, LIN7C-1; assay type: binding, human
LNX2-3 = test: Holdup assay, LNX2-3; assay type: binding, human
MAGI1-6 = test: Holdup assay, MAGI1-6; assay type: binding, human
MAGI3-1 = test: Holdup assay, MAGI3-1; assay type: binding, human
MAGI3-4 = test: Holdup assay, MAGI3-4; assay type: binding, human
MAGIX-1 = test: Holdup assay, MAGIX-1; assay type: binding, human
MLLT4-1 = test: Holdup assay, MLLT4-1; assay type: binding, human
MPDZ-1 = test: Holdup assay, MPDZ-1; assay type: binding, human

DLG2-2, sequence (Q15700 193-280): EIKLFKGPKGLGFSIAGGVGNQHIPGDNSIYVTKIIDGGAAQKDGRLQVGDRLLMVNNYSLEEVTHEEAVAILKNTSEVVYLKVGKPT
T1 sequence (Q86UL8 605-683 limits assumed): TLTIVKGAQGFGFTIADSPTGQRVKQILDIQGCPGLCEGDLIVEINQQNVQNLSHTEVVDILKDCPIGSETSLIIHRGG
DLG4-2, sequence (P78352 160-246): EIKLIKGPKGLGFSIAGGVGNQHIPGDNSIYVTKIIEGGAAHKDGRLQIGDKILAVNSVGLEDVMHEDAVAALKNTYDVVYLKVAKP
T2 sequence (Q15599 150-230 limits assumed): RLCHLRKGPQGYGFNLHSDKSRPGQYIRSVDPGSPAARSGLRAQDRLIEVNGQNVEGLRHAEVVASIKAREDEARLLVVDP
GORASP1-1, sequence (Q9BQQ3 2-440): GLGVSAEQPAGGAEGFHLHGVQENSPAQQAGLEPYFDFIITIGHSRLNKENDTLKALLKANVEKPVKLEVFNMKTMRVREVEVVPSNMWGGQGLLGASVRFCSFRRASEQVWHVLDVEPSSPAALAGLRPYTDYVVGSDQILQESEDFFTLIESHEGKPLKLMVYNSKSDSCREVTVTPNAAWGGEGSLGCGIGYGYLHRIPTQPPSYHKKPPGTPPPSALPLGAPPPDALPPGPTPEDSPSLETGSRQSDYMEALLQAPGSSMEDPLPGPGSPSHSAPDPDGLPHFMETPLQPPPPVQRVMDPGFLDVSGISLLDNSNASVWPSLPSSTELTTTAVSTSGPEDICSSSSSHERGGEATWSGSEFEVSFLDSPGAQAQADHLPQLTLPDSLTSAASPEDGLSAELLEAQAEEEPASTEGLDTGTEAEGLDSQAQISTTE

## CC[C@H](C)[C@H](NC(=O)[C@H](CCC(N)=O)NC(=O)[C@@H](NC(=O)[C@H](Cc1c[nH]cn1)NC(=O)[C@H](CCC(N)=O)NC(=O)[C@H](CC(=O)O)NC(=O)[C@H](CCC(=O)O)NC(=O)[C@H](CC(=O)O)NC(=O)[C@H](Cc1ccccc1)NC(=O)[C@@H]1CCCN1C(=O)CCC(=O)NCCCOCCOCCOCCCNC(=O)CCCC[C@@H]1SC[C@@H]2NC(=O)N[C@@H]21)[C@@H](C)O)C(=O)N[C@H](C(=O)N[C@@H](CCCCN)C(=O)N[C@H](C(=O)O)C(C)C)[C@@H](C)O [PTEN_13] ({X1-Suc}-PFDEDQHTQITKV-OH)
MAGI2 PDZ 3
  Kd: 30.1 µM
  BI: 0.342
NHERF2 PDZ 2
  BI: 0.117
SNTB2 PDZ 1
  Kd: 64 µM
  BI: 0.202
ARHGEF11-1
  BI: 0.114
DLG2-2
  BI: 0.054
  LogKD: 3.826
DLG3-2
  BI: 0.089
  LogKD: 3.826
DLG4-2
  BI: -0.004
  LogKD: 3.826
FRMPD2-3
  BI: -0.027
GIPC1-1
  BI: -0.02
GORASP1-1
  BI: 0.076
  LogKD: 3.826
GRIP1-3
  BI: -0.002
GRIP1-6
  BI: 0.004
GRIP1-7
  BI: 0.015
IL16-2
  BI: -0.025
INADL-10
  BI: -0.05
INADL-2
  BI: 0.043
INADL-4
  BI: -0.084
LIN7C-1
  BI: -0.105
LNX2-3
  BI: -0.083
MAGI1-6
  BI: 0.072
MAGI3-1
  BI: -0.006
MAGI3-4
  BI: -0.112
MAGIX-1
  BI: 0.049
MLLT4-1
  BI: 0.007
MPDZ-1
  BI: 0.011

## CC[C@H](C)[C@H](NC(=O)[C@H](CCC(N)=O)NC(=O)[C@@H](NC(=O)[C@H](Cc1c[nH]cn1)NC(=O)[C@H](CCC(N)=O)NC(=O)[C@H](CC(=O)O)NC(=O)[C@H](CCC(=O)O)NC(=O)[C@H](CC(=O)O)NC(=O)CCC(=O)NCCCOCCOCCOCCCNC(=O)CCCC[C@@H]1SC[C@@H]2NC(=O)N[C@@H]21)[C@@H](C)O)C(=O)N[C@H](C(=O)N[C@@H](CCCNC(=N)N)C(=O)N[C@H](C(=O)O)C(C)C)[C@@H](C)O [PTEN_KR] ({X1-Suc}-DEDQHTQITRV-OH)
MAGI2 PDZ 3
  Kd: 21.2 µM
  BI: 0.52
NHERF2 PDZ 2
  Kd: 20.9 µM
  BI: 0.523
SNTB2 PDZ 1
  BI: 0.009
ARHGEF11-1
  BI: 0.18
DLG2-2
  BI: 0.312
  Kd: 52.4 µM
DLG3-2
  BI: 0.277
  Kd: 62.4 µM
DLG4-2
  BI: 0.284
  Kd: 60.2 µM
FRMPD2-3
  BI: -0.067
  LogKD: 3.655
GIPC1-1
  BI: 0.02
  LogKD: 3.655
GORASP1-1
  BI: 0.122
GRIP1-3
  BI: -0.034
  LogKD: 3.655
GRIP1-6
  BI: 0.038
  LogKD: 3.655
GRIP1-7
  BI: -0.06
  LogKD: 3.655
IL16-2
  BI: -0.114
  LogKD: 3.655
INADL-10
  BI: 0.019
  LogKD: 3.655
INADL-2
  BI: 0.064
  LogKD: 3.655
INADL-4
  BI: -0.04
  LogKD: 3.655
LIN7C-1
  BI: -0.071
  LogKD: 3.655
LNX2-3
  BI: 0.021
  LogKD: 3.655
MAGI1-6
  BI: 0.051
  LogKD: 3.655
MAGI3-1
  BI: -0.004
  LogKD: 3.655
MAGI3-4
  BI: -0.011
  LogKD: 3.655
MAGIX-1
  BI: 0.018
  LogKD: 3.655
MLLT4-1
  BI: 0.021
  LogKD: 3.655
MPDZ-1
  BI: -0.039
  LogKD: 3.655
